Reference: ChEMBL document CHEMBL1136611, “Design, synthesis, and evaluation of beta-galactosylceramide mimics promoting beta-glucocerebrosidase activity in keratinocytes” (2003)

Assays:
Mus musculus [1] = species on record: Mus musculus; test: […] effect on UVB-induced murine epidermal barrier disruption to control water loss in mice in experiment 1; format: functional
Mus musculus [2] = species on record: Mus musculus; test: […] effect on UVB-induced murine epidermal barrier disruption to control water loss in mice in experiment 2; format: functional
[3] = target: T1, Lysosomal acid glucosylceramidase (Homo sapiens) (UniProt P04062); test: In vitro beta--Glucocerebrosidase (beta-GlcCer'ase) activity in cultured human keratinocytes; format: cell-based; parameters: reference not given here
T1 sequence (whole entry): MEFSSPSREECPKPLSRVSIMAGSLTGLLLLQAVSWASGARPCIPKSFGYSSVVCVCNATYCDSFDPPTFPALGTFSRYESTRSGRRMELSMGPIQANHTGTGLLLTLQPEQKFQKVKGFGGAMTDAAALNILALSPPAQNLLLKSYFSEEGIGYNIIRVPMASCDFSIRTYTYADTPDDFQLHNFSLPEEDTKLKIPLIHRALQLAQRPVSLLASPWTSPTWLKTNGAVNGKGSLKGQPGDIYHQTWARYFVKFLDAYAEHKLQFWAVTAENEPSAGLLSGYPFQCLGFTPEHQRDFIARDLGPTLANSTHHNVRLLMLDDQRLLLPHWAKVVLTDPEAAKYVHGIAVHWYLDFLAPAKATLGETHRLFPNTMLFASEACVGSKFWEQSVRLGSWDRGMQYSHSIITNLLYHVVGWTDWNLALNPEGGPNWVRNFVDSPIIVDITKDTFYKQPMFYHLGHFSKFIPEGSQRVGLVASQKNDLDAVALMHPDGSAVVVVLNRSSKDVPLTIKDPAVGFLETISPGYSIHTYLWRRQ

SMILES: CCCCCCCCCCCCCCCCCC(=O)N[C@@H](CO[C@@H]1O[C@@H](CO)C(O)[C@H](O)[C@@H]1O)C(=O)NCCCCCC (single isomer, unassigned)
- TEWL (Mus musculus [1]): 2.01
- TEWL (Mus musculus [2]): 2.19
- Activity [3]: 1.42

SMILES: CCCCCCCCCCCCCCCCCC(=O)N[C@@H](CO[C@@H]1O[C@@H](CO)C(O)[C@H](O)[C@@H]1O)C(=O)NCCCCCCCCCC (single isomer, unassigned)
- Activity [3]: 1.2

SMILES: CCCCCCCCCCCCCCCC(=O)N[C@@H](CO[C@@H]1O[C@@H](CO)C(O)[C@H](O)[C@@H]1O)C(=O)NCCCCCCCCCCCCCC (single isomer, unassigned)
- Activity [3]: 1.37

SMILES: CCCCCCCCCCCCCCCCCC(=O)N[C@@H](CO[C@@H]1O[C@@H](CO)C(O)[C@H](O)[C@@H]1O)C(=O)NCCCCCCCCCCCCCC (single isomer, unassigned)
- Activity [3]: 1.24

SMILES: CCCCCCCCCCCCCCNC(=O)[C@H](CO[C@@H]1O[C@@H](CO)C(O)[C@H](O)[C@@H]1O)NC(=O)CCCCCCC (single isomer, unassigned)
- Activity [3]: 0.87
